Laboratory results taken from patent US11753446B2, “Beta-hairpin peptidomimetics” (POLYPHOR AG, priority 2014, dated 2023).
Where two headings read alike, the source gives them in different places. Where a SMILES comes first, the peptide text is derived from it. [ ]: non-standard residue; d: D form. Tle = CC(C)(C)[C@H](N)C(=O)O; dDab = NCC[C@@H](N)C(=O)O; Orn = NCCC[C@H](N)C(=O)O; Dab = NCC[C@H](N)C(=O)O; Dap = NC[C@H](N)C(=O)O

What was measured:
[1] = test system: Escherichia coli ATCC 25922; assay type: cell-based
Protocol: (§1) Stock solutions were kept at +4° C., light protected.
(§2) The selective antimicrobial activities of the peptides were determined in 96-well plates (Greiner, polystyrene) by the standard NCCLS broth microdilution method (National Committee for Clinical Laboratory Standards 1993. Methods for dilution antimicrobial susceptibility tests for bacteria that grow aerobically, 3rd ed. Approved standard M7-A6; National Committee for Clinical laboratory standards, Wayne, Pa.) with slight modifications. Inocula of the microorganisms were diluted into Mueller-Hinton II (MH, cation adjusted) broth and compared with a 0.5 McFarland standard to give appr. 10^6 colony forming units (CFU)/mL. Aliquots (90 μl) of inoculate were added to 10 μl of MH broth+P-80 (Polysorbate 80, 0.002% final concentration) containing the peptide in serial two-fold dilutions. The following microorganisms were used to determine antibiotic selectivity of the peptides: Escherichia coli ATCC 25922, Klebsiella pneumoniae ATCC 13883 and Acinetobacter baumannii DSM 30008.

[2] = test system: Acinetobacter baumannii DSM 30008; assay type: cell-based
Protocol: as §1, §2

[3] = test system: Klebsiella pneumoniae ATCC 13883; assay type: cell-based
Protocol: as §1, §2

[4] = test system: human red blood cells (hRBC); experiment: Hemolysis: hemolytic activity at 100 μg/mL, 1 h at 37° C.
Protocol: Lyophilized peptides were weighed on a Microbalance (Mettler MT5) and dissolved in sterile water to a final concentration of 1 mg/mL. Stock solutions were kept at +4° C., light protected.
The peptides were tested for their hemolytic activity against human red blood cells (hRBC). Fresh hRBC were washed three times with phosphate buffered saline (PBS) and centrifuged for 5 min at 3000×g. Compounds (100 μg/mL) were incubated with 20% hRBC (v/v) for 1 h at 37° C. and shaking at 300 rpm. The final erythrocyte concentration was approximately 0.9×10^9 cells/mL. A value of 0% and 100% cell lyses, respectively, was determined by incubation of hRBC in the presence of PBS containing 0.001% acetic acid and 2.5% Triton X-100 in H2O, respectively. The samples were centrifuged, the supernatants were 8-fold diluted in PBS buffer and the optical densities (OD) were measured at 540 nm.
Percent hemolysis was calculated as follows: (OD540peptide/OD540H2O)×100%.

[5] = Mueller-Hinton II broth, 18-20 hours at 35° C.

Structure (SMILES)	Escherichia coli ATCC 25922 MIC ([1]; ATCC 25922) [µg/mL]	Acinetobacter baumannii DSM 30008 MIC ([2]; DSM 30008) [µg/mL]	Klebsiella pneumoniae ATCC 13883 MIC ([3]; ATCC 13883) [µg/mL]	Hemolysis at 100 μg/mL ([4]; red cells of human, 1 h, 100) [%]	Hemolysis at 100 μg/mL ([4]; red cells of human, 1 h, 100 μg/mL) [%]	Escherichia coli ATCC 25922 MIC [1, 5] [µg/mL]	Acinetobacter baumannii DSM 30008 MIC [2, 5] [µg/mL]	Klebsiella pneumoniae ATCC 13883 MIC [3, 5] [µg/mL]	Hemolysis at 100 μg/mL ([4]; 100 μg/mL, 20% hRBC, 1 h at 37° C.) [%]
CC(C)C[C@@H]1NC(=O)[C@H](CCCNC(=N)N)NC(=O)[C@@H](CCN)NC(=O)[C@H](Cc2ccc(O)cc2)NC(=O)[C@@H]2CSSC[C@H](NC1=O)C(=O)N[C@@H](Cc1ccc(O)cc1)C(=O)N[C@@H](C(C)C)C(=O)N[C@@H](CCCN)C(=O)N[C@H](CCN)C(=O)N[C@@H](CCN)C(=O)N[C@@H](Cc1c[nH]c3ccccc13)C(=O)N[C@@H](Cc1ccc(O)cc1)C(=O)N[C@@H](Cc1ccc(O)cc1)C(=O)N2 [Example 22, cyclo(-Leu-Cys-Tyr-Val-Orn-^DDab-Dab-Trp-Tyr-Tyr-Cys-Tyr-^DDab-Arg-)] (HELM PEPTIDE1{C.Y.V.[Orn].[NCC[C@@H](N[*:1])C(=O)[*:2]].[Dab].W.Y.Y.C.Y.[NCC[C@@H](N[*:1])C(=O)[*:2]].R.L}$PEPTIDE1,PEPTIDE1,1:R3-10:R3|PEPTIDE1,PEPTIDE1,1:R1-14:R2$$$V2.0)	0.5	0.5	1	6					
C[C@@H]1NC(=O)[C@H](C(C)(C)C)NC(=O)[C@H](CCN)NC(=O)[C@H](Cc2c[nH]c3ccccc23)NC(=O)[C@H](CCN)NC(=O)[C@@H](CCN)NC(=O)[C@H](CCCN)NC(=O)[C@H](CCN)NC(=O)[C@H](Cc2ccc(O)cc2)NC(=O)[C@H](CN)NC(=O)[C@H](Cc2ccccc2)NC(=O)[C@@H]2CCCN2C(=O)[C@@H](CCN)NC(=O)[C@H](CO)NC1=O [Example 50, cyclo(-Phe-Dap-Tyr-Dab-Orn-^DDab-Dab-Trp-Dab-tBuGly-Ala-Ser-^DDab-Pro-)] (cyclo(AS[dDab]PF[Dap]Y[Dab][Orn][dDab][Dab]W[Dab][Tle]))	1	2	0.5	11					
CC(C)[C@@H]1NC(=O)[C@H](CCCNC(=N)N)NC(=O)[C@@H](CCN)NC(=O)[C@H](C(C)C)NC(=O)[C@@H]2CSSC[C@H](NC1=O)C(=O)N[C@@H](Cc1ccc(O)cc1)C(=O)N[C@@H](CC(N)=O)C(=O)N[C@@H](CCCN)C(=O)N[C@H](CCN)C(=O)N[C@@H](CCN)C(=O)N[C@@H](Cc1c[nH]c3ccccc13)C(=O)N[C@@H](CO)C(=O)N[C@@H](Cc1ccc(O)cc1)C(=O)N2 [Example 57, cyclo(-Val-Cys-Tyr-Asn-Orn-^DDab-Dab-Trp-Ser-Tyr-Cys-Val-^DDab-Arg-)] (HELM PEPTIDE1{C.V.[NCC[C@@H](N[*:1])C(=O)[*:2]].R.V.C.Y.N.[Orn].[NCC[C@@H](N[*:1])C(=O)[*:2]].[Dab].W.S.Y}$PEPTIDE1,PEPTIDE1,1:R3-6:R3|PEPTIDE1,PEPTIDE1,1:R1-14:R2$$$V2.0)	1	1.25	1.5	1					
CC(C)C[C@@H]1NC(=O)[C@H](CCCNC(=N)N)NC(=O)[C@H]2CCCN2C(=O)[C@H](C(C)C)NC(=O)[C@@H]2CSSC[C@H](NC1=O)C(=O)N[C@@H](Cc1ccc(O)cc1)C(=O)N[C@@H](CC(N)=O)C(=O)N[C@@H](CCCN)C(=O)N[C@H](CCN)C(=O)N[C@@H](CCN)C(=O)N[C@@H](Cc1c[nH]c3ccccc13)C(=O)N[C@@H](CCN)C(=O)N[C@@H](Cc1ccc(O)cc1)C(=O)N2 [Example 78, cyclo(-Leu-Cys-Tyr-Asn-Orn-^DDab-Dab-Trp-Dab-Tyr-Cys-Val-^DPro-Arg-)] (HELM PEPTIDE1{C.V.[dP].R.L.C.Y.N.[Orn].[NCC[C@@H](N[*:1])C(=O)[*:2]].[Dab].W.[Dab].Y}$PEPTIDE1,PEPTIDE1,1:R3-6:R3|PEPTIDE1,PEPTIDE1,1:R1-14:R2$$$V2.0)	1.5	1.5	1	1					
CC(C)C[C@@H]1NC(=O)[C@H](CCCNC(=N)N)NC(=O)[C@H]2CCCN2C(=O)[C@H](C(C)C)NC(=O)[C@H]([C@@H](C)O)NC(=O)[C@H](C(C)C)NC(=O)[C@@H]2CSSC[C@H](NC(=O)[C@H](Cc3ccc(O)cc3)NC(=O)[C@H]([C@@H](C)O)NC1=O)C(=O)N[C@@H](CCN)C(=O)N[C@@H](CCN)C(=O)N[C@@H](CCN)C(=O)N[C@@H](Cc1c[nH]c3ccccc13)C(=O)N2 [Example 35, cyclo(-Leu-Thr-Tyr-Cys-Dab-Dab-Dab-Trp-Cys-Val-Thr-Val-^DPro-Arg-)] (HELM PEPTIDE1{C.[Dab].[Dab].[Dab].W.C.V.T.V.[dP].R.L.T.Y}$PEPTIDE1,PEPTIDE1,1:R3-6:R3|PEPTIDE1,PEPTIDE1,1:R1-14:R2$$$V2.0)	2	1	2	4					
CC(C)C[C@@H]1NC(=O)[C@H](CCCNC(=N)N)NC(=O)[C@H]2CCCN2C(=O)[C@H](C(C)C)NC(=O)[C@@H]2CSSC[C@H](NC1=O)C(=O)N[C@@H](Cc1ccc(O)cc1)C(=O)N[C@H]1CSSC[C@H](NC(=O)[C@H](Cc3c[nH]c4ccccc34)NC(=O)[C@H](CCN)NC(=O)[C@H](CCN)NC(=O)[C@H](CCN)NC1=O)C(=O)N[C@@H](Cc1ccc(O)cc1)C(=O)N2 [Example 42, cyclo(-Leu-Cys-Tyr-Cys-Dab-Dab-Dab-Trp-Cys-Tyr-Cys-Val-^DPro-Arg-)] (HELM PEPTIDE1{C.[Dab].[Dab].[Dab].W.C.Y.C.V.[dP].R.L.C.Y}$PEPTIDE1,PEPTIDE1,1:R3-6:R3|PEPTIDE1,PEPTIDE1,8:R3-13:R3|PEPTIDE1,PEPTIDE1,1:R1-14:R2$$$V2.0)	4	1	2		3				
CC(C)C[C@@H]1NC(=O)[C@H](CCCNC(=N)N)NC(=O)[C@@H](CCN)NC(=O)[C@H](Cc2ccc(O)cc2)NC(=O)[C@@H]2CSSC[C@H](NC1=O)C(=O)N[C@@H](Cc1ccc(O)cc1)C(=O)N[C@@H](CC(N)=O)C(=O)N[C@@H](CCCN)C(=O)N[C@H](CCN)C(=O)N[C@@H](CCN)C(=O)N[C@@H](Cc1c[nH]c3ccccc13)C(=O)N[C@@H](CO)C(=O)N[C@@H](Cc1ccc(O)cc1)C(=O)N2 [Example 11, cyclo(-Leu-Cys-Tyr-Asn-Orn-^DDab-Dab-Trp-Ser-Tyr-Cys-Tyr-^DDab-Arg-)] (HELM PEPTIDE1{C.Y.N.[Orn].[NCC[C@@H](N[*:1])C(=O)[*:2]].[Dab].W.S.Y.C.Y.[NCC[C@@H](N[*:1])C(=O)[*:2]].R.L}$PEPTIDE1,PEPTIDE1,1:R3-10:R3|PEPTIDE1,PEPTIDE1,1:R1-14:R2$$$V2.0)	0.25	0.5	0.25	4					
CC(C)C[C@@H]1NC(=O)[C@H](CCCNC(=N)N)NC(=O)[C@H]2CCCN2C(=O)[C@H](C(C)C)NC(=O)[C@@H]2CSSC[C@H](NC1=O)C(=O)N[C@@H](Cc1ccc(O)cc1)C(=O)N[C@@H](C)C(=O)N[C@@H](CCN)C(=O)N[C@@H](CCN)C(=O)N[C@@H](CCN)C(=O)N[C@@H](Cc1c[nH]c3ccccc13)C(=O)N[C@@H](C)C(=O)N[C@@H](C(C)C)C(=O)N2 [Example 1, cyclo(-Leu-Cys-Tyr-Ala-Dab-Dab-Dab-Trp-Ala-Val-Cys-Val-^DPro-Arg-)] (HELM PEPTIDE1{A.[Dab].[Dab].[Dab].W.A.V.C.V.[dP].R.L.C.Y}$PEPTIDE1,PEPTIDE1,8:R3-13:R3|PEPTIDE1,PEPTIDE1,1:R1-14:R2$$$V2.0)						2	0.75	1	5
CC(C)[C@@H]1NC(=O)[C@@H]2CCCN2C(=O)[C@@H](C)NC(=O)[C@H]([C@@H](C)O)NC(=O)[C@H](CO)NC(=O)[C@H](C(C)(C)C)NC(=O)[C@H](CCN)NC(=O)[C@H](Cc2c[nH]c3ccccc23)NC(=O)[C@H](CCN)NC(=O)[C@@H](CCN)NC(=O)[C@H](CCN)NC(=O)[C@H](CCN)NC(=O)[C@H](Cc2ccc(O)cc2)NC(=O)[C@H](CN)NC1=O [Example 46, cyclo(-Val-Dap-Tyr-Dab-Dab-^DDab-Dab-Trp-Dab-tBuGly-Ser-Thr-^DAla-Pro-)] (cyclo([Dab][Dab][dDab][Dab]W[Dab][Tle]ST[dA]PV[Dap]Y))	1	1	0.5	0					
